We go through 4 compounds from ChEMBL document CHEMBL1135856, “Identification of unique VLA-4 antagonists from a combinatorial library” (Bioorg Med Chem Lett, 2002).

SMILES strings stand for the structures.

Sequence of Integrin alpha-4/beta-1 (P05556 whole entry): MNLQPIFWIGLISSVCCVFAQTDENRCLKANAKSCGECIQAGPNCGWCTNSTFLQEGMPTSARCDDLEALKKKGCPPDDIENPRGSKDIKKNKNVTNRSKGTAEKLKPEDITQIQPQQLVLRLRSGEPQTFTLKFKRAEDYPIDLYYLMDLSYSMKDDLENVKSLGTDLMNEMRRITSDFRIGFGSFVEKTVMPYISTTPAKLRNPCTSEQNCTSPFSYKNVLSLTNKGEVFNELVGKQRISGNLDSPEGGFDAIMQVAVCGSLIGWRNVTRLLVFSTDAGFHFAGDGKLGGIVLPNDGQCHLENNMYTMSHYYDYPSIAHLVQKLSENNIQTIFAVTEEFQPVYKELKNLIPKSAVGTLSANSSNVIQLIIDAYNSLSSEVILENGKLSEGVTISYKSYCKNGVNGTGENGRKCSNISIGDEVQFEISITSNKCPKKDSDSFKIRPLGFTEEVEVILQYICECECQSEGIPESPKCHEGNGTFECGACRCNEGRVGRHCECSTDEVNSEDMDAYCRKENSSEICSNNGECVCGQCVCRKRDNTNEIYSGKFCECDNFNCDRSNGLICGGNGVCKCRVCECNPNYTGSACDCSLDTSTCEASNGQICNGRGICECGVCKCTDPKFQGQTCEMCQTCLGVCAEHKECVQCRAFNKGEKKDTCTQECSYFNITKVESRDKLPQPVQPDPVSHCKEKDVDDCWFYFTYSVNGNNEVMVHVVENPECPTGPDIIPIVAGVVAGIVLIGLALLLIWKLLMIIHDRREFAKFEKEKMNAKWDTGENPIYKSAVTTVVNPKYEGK
Sequence of Integrin alpha-4/beta-1 (P13612 whole entry): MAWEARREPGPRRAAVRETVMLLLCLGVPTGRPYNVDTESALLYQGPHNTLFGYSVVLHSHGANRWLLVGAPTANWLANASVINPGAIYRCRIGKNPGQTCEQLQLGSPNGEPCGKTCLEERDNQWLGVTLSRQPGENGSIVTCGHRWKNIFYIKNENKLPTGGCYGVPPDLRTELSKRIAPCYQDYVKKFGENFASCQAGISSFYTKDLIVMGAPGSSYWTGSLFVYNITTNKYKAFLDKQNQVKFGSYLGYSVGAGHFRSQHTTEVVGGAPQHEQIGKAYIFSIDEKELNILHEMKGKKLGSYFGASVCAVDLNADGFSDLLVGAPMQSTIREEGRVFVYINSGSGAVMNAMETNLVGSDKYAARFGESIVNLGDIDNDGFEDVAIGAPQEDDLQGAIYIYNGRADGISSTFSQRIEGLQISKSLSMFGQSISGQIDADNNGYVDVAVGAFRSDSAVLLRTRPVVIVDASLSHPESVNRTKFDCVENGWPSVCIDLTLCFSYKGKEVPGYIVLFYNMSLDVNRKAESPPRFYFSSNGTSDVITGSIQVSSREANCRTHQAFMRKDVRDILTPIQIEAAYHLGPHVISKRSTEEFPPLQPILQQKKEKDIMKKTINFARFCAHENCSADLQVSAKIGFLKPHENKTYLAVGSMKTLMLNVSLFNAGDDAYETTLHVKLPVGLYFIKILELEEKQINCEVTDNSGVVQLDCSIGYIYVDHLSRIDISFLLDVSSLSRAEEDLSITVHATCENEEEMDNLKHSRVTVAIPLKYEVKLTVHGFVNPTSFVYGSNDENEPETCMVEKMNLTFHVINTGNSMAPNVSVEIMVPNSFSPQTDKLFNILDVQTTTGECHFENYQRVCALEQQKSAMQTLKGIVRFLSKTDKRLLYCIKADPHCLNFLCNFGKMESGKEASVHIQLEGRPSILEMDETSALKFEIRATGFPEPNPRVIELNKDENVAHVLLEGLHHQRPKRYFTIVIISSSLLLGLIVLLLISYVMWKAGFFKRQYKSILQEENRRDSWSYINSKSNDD

The assay has as its target Integrin alpha-4/beta-1 (Homo sapiens, UniProt P05556+P13612). In words: Inhibition of [125I]VCAM-Ig binding to Alpha-4 beta-1 (VLA-4) of Jurkat cells. Format: cell-based.
Compound `O=C(N[C@@H](Cc1ccc(-c2ccccc2)cc1)C(=O)O)c1ccc(CNS(=O)(=O)c2cc(Cl)cc(Cl)c2)cc1` displayed an IC50 of 3.6 nM.

For the compound `Cc1ccccc1NC(=O)Nc1ccc(CC(=O)C2CCC(C(=O)N[C@@H](Cc3ccccc3)C(=O)O)(c3ccccc3)CC2)cc1` (some centres undefined), the IC50 was determined as 8.1 nM.

For the compound `Cc1ccccc1NC(=O)Nc1ccc(CC(=O)N(CC(=O)NC(CC(=O)O)c2ccccc2)C2CCCCC2)cc1` (centres undefined), the 50% inhibitory concentration (IC50) came to 3.2 nM.

`CCCC[C@H](NC(=O)[C@@H]1Cc2ccccc2CN1S(=O)(=O)c1ccc(OC)c(OC)c1)C(=O)O` returned an IC50 of 0.53 nM. This IC50 is about 6-fold lower than that of the compound before.
